This passage reports IC50 results from patent US20220274979A1 (Bayer Pharma Aktiengesellschaft, priority 2018, published 2022).

Where only a bound is given, the exact number is not on record here.

This assay addresses T1, hSOS1 (hSOS1-mediated nucleotide exchange of hK-RasG12C) (Homo sapiens, UniProt Q07889).
T1 construct: hSOS1 (amino acid 564-1049); made in house; host or cells: E. coli BL21 (DE3)
T1 sequence (Q07889 with tags, fused parts or gaps): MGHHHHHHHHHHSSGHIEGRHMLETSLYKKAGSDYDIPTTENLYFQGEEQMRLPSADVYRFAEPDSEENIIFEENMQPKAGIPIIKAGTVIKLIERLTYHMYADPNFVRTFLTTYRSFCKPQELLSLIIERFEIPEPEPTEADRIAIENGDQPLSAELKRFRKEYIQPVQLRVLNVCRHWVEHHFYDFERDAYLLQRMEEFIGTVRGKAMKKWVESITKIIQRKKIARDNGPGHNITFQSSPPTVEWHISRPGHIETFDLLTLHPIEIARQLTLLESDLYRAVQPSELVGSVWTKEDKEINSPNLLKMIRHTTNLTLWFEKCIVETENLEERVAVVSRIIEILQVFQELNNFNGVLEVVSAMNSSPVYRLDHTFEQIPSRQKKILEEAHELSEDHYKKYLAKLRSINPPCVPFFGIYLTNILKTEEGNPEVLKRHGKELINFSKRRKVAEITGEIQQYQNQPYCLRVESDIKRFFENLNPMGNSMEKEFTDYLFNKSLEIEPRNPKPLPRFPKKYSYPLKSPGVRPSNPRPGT
As to the kind of experiment: Biochemical Assay 2: hK-RasG12C activation assay by hSOS1 at high GTP concentration (HTRF nucleotide exchange). The settings on record: high GTP (50 μM GTP). From the text: Biochemical Assay 2: hK-RasG12C Activation Assay by hSOS1 at High GTP Concentration
This assay quantifies human SOS1-mediated nucleotide exchange of human K-Ras^G12C (hK-RasG12C) preloaded with a fluorescent […] and in presence of an excess of free GTP. Loaded hK-RasG12C generates a high HTRF-signal by energy transfer from antiGST-Terbium (FRET donor) bound to hK-Ras to the loaded fluorescent GDP analog (FRET-acceptor). hSOS1 activity exchanges the fluorescent GDP for non-fluorescent GTP and therefore leads to a reduction of the HTRF signal.
The fluorescent GDP-analog EDA-GDP-Dy647P1 (2′/3′-O-(2-Aminoethyl-carbamoyl)-guanosine-5′-diphosphate labelled with Dy647P1 (Dyomics GmbH, Germany)) was synthesized by Jena Biosciences GmbH (Germany) and supplied as a 1 mM aqueous solution.
Concentrations of protein batches used were optimized to be within the linear range of the HTRF signal.
Addition of 20 μl 1 M MgCl2 (Sigma) to final 40 mM and store on ice. Purification into buffer (10 mM HEPES pH 7.4 (Applichem), 150 mM NaCl (Sigma), 5 mM MgCl2 (Sigma)) by use of a PD-Minitrap desalting column (GE Healthcare). Concentration of 1 ml purified hK-Ras-GDP-Dy647 is approx. 4-5 μM.
The assay buffer contained 10 mM HEPES pH 7.4 (Applichem), 150 mM NaCl (Sigma), 5 mM MgCl2 (Sigma), 1 mM DTT (Thermofisher), 0.05% BSA Fraction V, pH 7.0, (ICN Biomedicals), 0.0025% (v/v) Igepal (Sigma).
A Ras working solution was prepared in assay buffer containing typically 80 nM loaded GST-hK-RasG12C-EDA-GDP-Dy647P1 and 2 nM antiGST-Tb (Cisbio, France).
Alternatively, the inhibitor control solution was prepared by supplementing the hSOS1 working solution with 20 μM of 6,7-dimethoxy-N-[(1R)-1-(1-naphthyl)ethyl]quinazolin-4-amine which was used to calibrate the assay.
Fifty nl of a 100-fold concentrated solution of the test compound in DMSO were transferred into a black microtiter test plate (384 or 1536, Greiner Bio-One, Germany) For this, either a Hummingbird liquid handler (Digilab, Mass., USA) or an Echo acoustic system (Labcyte, Calif., USA) was used.
All steps of the assay were performed at 20° C. A volume of 2.5 μl of the Ras working solution was added to all wells of the test plate using a Multidrop dispenser (Thermo Labsystems). After 2 min. preincubation, 2.5 μl of the hSOS1 working solution were added to all wells except for those wells at the side of the test plate that were subsequently filled with 2.5 μl of the inhibitor control solution. After 20 min. incubation the fluorescence was measured with a Pherastar (BMG, Germany) using the HTRF module (excitation 337 nm, emission 1:620 nm, emission 2:665 nm).
IC50 values were calculated by 4-Parameter fitting using a commercial software package (Genedata Screener, Switzerland).
Molecule `Cc1nc(N[C@H](C)c2cccc(Br)c2)c2nc(OCc3ccccc3)ccc2n1` [Example 33, 6-(benzyloxy)-N-[(1R)-1-(3-bromophenyl)ethyl]-2-methylpyrido[3,2-d]pyrimidin-4-amine] had an IC50 of more than 20000 nM.
For `Cc1nc(N[C@H](C)c2cccc(Br)c2)c2cc(F)ncc2n1` [Example 34, N-[(1R)-1-(3-bromophenyl)ethyl]-6-fluoro-2-methylpyrido[3,4-d]pyrimidin-4-amine] the value was more than 20000 nM; for `Cc1nc(NC(C)c2ccc(Br)s2)c2cc(F)ncc2n1` (centres unmarked) [Example 35], more than 20000 nM.
Molecule `CNCc1ccccc1-c1ccc(C(C)Nc2nc(C)nc3cnc(F)cc23)s1` (centres unmarked) [Example 36, 6-fluoro-2-methyl-N-[1-(5-{2-[(methylamino)methyl]phenyl}thiophen-2-yl)ethyl]pyrido[3,4-d]pyrimidin-4-amine] showed an IC50 of 19000 nM.
With `CNCc1ccccc1-c1ccc(C(C)Nc2nc(C)nc3cnc(Oc4ccc(N5CCCC5=O)cc4)cc23)s1` (centres unmarked) [Example 38, 1-{4-[(2-methyl-4-{[1-(5-{2-[(methylamino)methyl]phenyl}thiophen-2-yl)ethyl]amino}pyrido[3,4-d]pyrimidin-6-yl)oxy]phenyl}pyrrolidin-2-one], the midpoint of inhibition, the IC50, lay at 601 nM.
The figure for `Cc1nc(N[C@H](C)c2cccc(Br)c2)c2cc(NCCN3CCOCC3)ncc2n1` [Example 39] is 1360 nM; for `Cc1nc(N[C@H](C)c2cccc(Br)c2)c2cc(Oc3cccc(O)c3)ncc2n1` [Example 40, 3-[(4-{[(1R)-1-(3-bromophenyl)ethyl]amino}-2-methylpyrido[3,4-d]pyrimidin-6-yl)oxy]phenol] it is 8660 nM.
For `Cc1nc(N[C@H](C)c2cccc(Br)c2)c2cc(Oc3cccc(C4=NCCN4C)c3)ncc2n1` [Example 41, N-[(1R)-1-(3-bromophenyl)ethyl]-2-methyl-6-[3-(1-methyl-4,5-dihydro-1H-imidazol-2-yl)phenoxy]pyrido[3,4-d]pyrimidin-4-amine] the value was 2310 nM; for `Cc1nc(N[C@H](C)c2cccc(Br)c2)c2cc(N3CCN(Cc4cccnc4)CC3)ncc2n1` [Example 43, N-[(1R)-1-(3-bromophenyl)ethyl]-2-methyl-6-[4-(pyridin-3-ylmethyl)piperazin-1-yl]pyrido[3,4-d]pyrimidin-4-amine], 380 nM.
For `CC(=O)NCCNc1cc2c(N[C@H](C)c3cccc(Br)c3)nc(C)nc2cn1` [Example 44, N-{2-[(4-{[(1R)-1-(3-bromophenyl)ethyl]amino}-2-methylpyrido[3,4-d]pyrimidin-6-yl)amino]ethyl}acetamide], the IC50 amounted to 1060 nM.
The figure for `Cc1nc(N[C@H](C)c2cccc(Br)c2)c2cc(N3CCNC(=O)C3)ncc2n1` [Example 45] is 506 nM; for `Cc1nc(N[C@H](C)c2cccc(Br)c2)c2cc(NC3CCOCC3)ncc2n1` [Example 46] it is 4220 nM.
The figure for `Cc1nc(NC(C)c2ccc(-c3ccccc3CN(C)C)s2)c2cc(NCCN3CCOCC3)ncc2n1` (centres unmarked) [Example 48] is 141 nM; for `Cc1nc(N[C@H](C)c2cccc(Br)c2)c2cc(NCCn3cccn3)ncc2n1` [Example 49, N4-[(1R)-1-(3-bromophenl)pethyl]-2-methyl-N6-[2-(1H-pyrazol-1-yl)ethyl]pyrido[3,4-d]pyrimidine-4,6-diamine] it is 3630 nM; for `CC(=O)NCCNc1cc2c(NC(C)c3ccc(-c4ccccc4CN(C)C)s3)nc(C)nc2cn1` (centres unmarked) [Example 51, N-{2-[(4-{[1-(5-{2-[(dimethylamino)methyl]phenyl}thiophen-2-yl)ethyl]amino}-2-methylpyrido[3,4-d]pyrimidin-6-yl)amino]ethyl}acetamide] it is 77.8 nM.
The figure for `Cc1nc(NC(C)c2ccc(-c3ccccc3CN(C)C)s2)c2cc(Oc3cccc(O)c3)ncc2n1` (centres unmarked) [Example 52, 3-[(4-{[1-(5-{2-[(dimethylamino)methyl]phenyl}thiophen-2-yl)ethyl]amino}-2-methylpyrido[3,4-d]pyrimidin-6-yl)oxy]phenol] is 856 nM; for `Cc1nc(NC(C)c2ccc(-c3ccccc3CN(C)C)s2)c2cc(NC3CCOCC3)ncc2n1` (centres unmarked) [Example 53, N4-[1-(5-{2-[(dimethylamino)methyl]phenyl}-2-thienyl)ethyl]-2-methyl-N6-(tetrahydro-2H-pyran-4-yl)pyrido[3,4-d]pyrimidine-4,6-diamine] it is 223 nM.
The molecule `Cc1nc(NC(C)c2ccc(-c3ccccc3CN(C)C)s2)c2cc(NCCn3cccn3)ncc2n1` (centres unmarked) [Example 54, N4-[1-(5-{2-[(dimethylamino)methyl]phenyl}-2-thienyl)ethyl]-2-methyl-N6-[2-(1H-pyrazol-1-yl)ethyl]pyrido[3,4-d]pyrimidine-4,6-diamine] showed an IC50 of 161 nM.
For `Cc1nc(NC(C)c2ccc(-c3ccccc3CN(C)C)s2)c2cc(NCCn3ccnc3)ncc2n1` (centres unmarked) [Example 56, N4-[1-(5-{2-[(dimethylamino)methyl]phenyl}-2-thienyl)ethyl]-N6-[2-(1H-imidazol-1-yl)ethyl]-2-methylpyrido[3,4-d]pyrimidine-4,6-diamine] the value was 93.9 nM; for `COc1cc2c(N[C@H](C)c3cccc(Br)c3)nc(C)nc2cn1` [Example 57, N-[(1R)-1-(3-bromophenyl)ethyl]-6-methoxy-2-methylpyrido[3,4-d]pyrimidin-4-amine], 1230 nM; for `Cc1nc(NC(C)c2ccc(-c3ccccc3CN(C)C)s2)c2cc(Oc3cccc(C4=NCCN4C)c3)ncc2n1` (centres unmarked) [Example 58, N-[1-(5-{2-[(dimethylamino)methyl]phenyl}thiophen-2-yl)ethyl]-2-methyl-6-[3-(1-methyl-4,5-dihydro-1H-imidazol-2-yl)phenoxy]pyrido[3,4-d]pyrimidin-4-amine], 141 nM.
The figure for `CSc1cc2c(NC(C)c3ccc(-c4ccccc4CN(C)C)s3)nc(C)nc2cn1` (centres unmarked) [Example 59, N-[1-(5-{2-[(dimethylamino)methyl]phenyl}thiophen-2-yl)ethyl]-2-methyl-6-(methylsulfanyl)pyrido[3,4-d]pyrimidin-4-amine] is 67.9 nM; for `CC(=O)NCCOc1cc2c(N[C@H](C)c3cccc(Br)c3)nc(C)nc2cn1` [Example 62, N-{2-[(4-{[(1R)-1-(3-bromophenyl)ethyl]amino}-2-methylpyrido[3,4-d]pyrimidin-6-yl)oxy]ethyl}acetamide] it is 443 nM.
The figure for `CCOc1cc2c(NC(C)c3ccc(-c4ccccc4CN(C)C)s3)nc(C)nc2cn1` (centres unmarked) [Example 63, N-[1-(5-{2-[(dimethylamino)methyl]phenyl}thiophen-2-yl)ethyl]-6-ethoxy-2-methylpyrido[3,4-d]pyrimidin-4-amine] is 28 nM; for `COc1cc2c(NC(C)c3ccc(-c4ccccc4CN(C)C)s3)nc(C)nc2cn1` (centres unmarked) [Example 64, N-[1-(5-{2-[(dimethylamino)methyl]phenyl}thiophen-2-yl)ethyl]-6-methoxy-2-methylpyrido[3,4-d]pyrimidin-4-amine] it is 62.6 nM; for `Cc1nc(NC(C)c2ccc(-c3ccccc3CN(C)C)s2)c2cc(OC3CCS(=O)(=O)CC3)ncc2n1` (centres unmarked) [Example 67, N-[1-(5-{2-[(dimethylamino)methyl]phenyl}thiophen-2-yl)ethyl]-6-[(1,1-dioxidotetrahydro-2H-thiopyran-4-yl)oxy]-2-methylpyrido[3,4-d]pyrimidin-4-amine] it is 26.6 nM.

What is called IC50 is the concentration that gives 50% inhibition.
